From patent US20230405134A1, “NOVEL PROTAC CHIMERIC COMPOUND, AND PHARMACEUTICAL COMPOSITION COMPRISING SAME FOR PREVENTING, AMELIORATING, OR TREATING DISEASES THROUGH TARGET PROTEIN DEGRADATION” (POSTECH RESEARCH AND BUSINESS DEVELOPMENT FOUNDATION, priority 2020, published 2023)
Where a SMILES comes first, the peptide text is derived from it. Bridges are numbered along the chain shown (N, C = ends). [ ]: non-standard residue; d: D form. Cha = N[C@@H](CC1CCCCC1)C(=O)O; S5 = C=CCCC[C@](C)(N)C(=O)O

System: E-cadherin
Experiment: E-cadherin mRNA level by RT-qPCR in MDA-MB-231 cells
Assay type: cell-based, human
Details: 12 hours
Description: The pharmacological effects on SRC-1 dependent signal transmission were explored using the previously discovered SRC-1 degrading substance. The SRC-1 is overexpressed in various cancers and plays a pivotal role in increasing cell migration and invasion by regulating the expression of related genes. Therefore, when treated with ND1-YL2, an SRC-1 degrading substance, the expression of genes stimulated by SRC-1, such as colony stimulating factor-1 (CSF-1), a gene encoding the cytokine CSF-1 that induces cell differentiation and migration, will be suppressed. To confirm this, MDA-MB-231 cells were treated with DMSO and various concentrations of ND1-YL2, YL2 or N-degron tetrapeptide for 12 hours, and the mRNA level of CSF-1 was normalized to 18S level. Confirmation was made using quantitative real-time polymerase chain reaction (RT-qPCR). MDA-MB-231 cells were seeded at 2×10^5 cells per well. After 24 hours, compounds (YL2, RLAA or ND1-YL2) were treated in Opti-MEM medium for 12 hours. Subsequently, general mRNA isolation was performed using TRI reagent (Takara), and total mRNA was isolated from the cells. The absorbance of total mRNA was measured with a Tecan F200 Nanophotometer, and reverse transcription was performed using AccuPower RocketScript Cycle RT PreMix (Bioneer). Quantitative real-time PCR for CSF-1, E-Cadherin and 18S was performed using a StepOnePlus Real-Time PCR System and SYBR Green mix (Applied Biosystems) according to the manufacturer's manual.
In addition, the effect of the ND1-YL2 on the expression of E-cadherin, a tumor suppressor gene that plays an important role in cell-cell adhesion, was tested. Since SRC-1 protein is known to suppress the E-cadherin expression, the ND1-YL2 will upregulate the E-cadherin by degrading SRC-1.

CC(C)C[C@H](NC(=O)[C@H](C)NC(=O)[C@H](C)NC(=O)[C@H](C)NC(=O)[C@H](C)NC(=O)[C@H](CC(C)C)NC(=O)[C@@H](N)CCCNC(=N)N)C(=O)N[C@@H](CC(C)C)C(=O)N1CCC[C@H]1C(=O)N1CCC[C@H]1C(=O)N[C@H](C(=O)N[C@@H](CCC(=O)O)C(=O)N[C@@H](CCC(N)=O)C(=O)N[C@@H](CC(=O)O)C(=O)N[C@@H](CC(C)C)C(=O)N[C@@]1(C)CCC/C=C\CCC[C@@](C)(C(=O)N[C@@H](Cc2ccc(O)cc2)C(N)=O)NC(=O)[C@H](CC2CCCCC2)NC(=O)[C@H](CC(C)C)NC(=O)[C@H](CCCCN)NC1=O)[C@@H](C)O [ND1-YL2] (H-RLAAAALLPPTEQDL[S5]KL[Cha][S5]Y-NH2; staple (Z) 16-20) was tested, and the “Effect on E-cadherin expression (mRNA)” value was “dose-dependent increase”.
